This is an account of results in ChEMBL document CHEMBL5244278, “Bioisosteres of the Phenyl Ring: Recent Strategic Applications in Lead Optimization and Drug Design” (J Med Chem, 2021).

Series [1] is described as follows: physchem. As to conditions: octanol/PBS, pH 7.6.
The nature of series [2]: in vitro. As to conditions: human, Caco-2.
Series [3] is described as follows: physchem. As to conditions: buffer, pH 7.4.
Series [4] concerns Hepatitis C virus. As to the kind of experiment: Antiviral activity against HCV GT3a-genotype assessed as inhibition of viral replication. It is filed as functional, organism-based, Hepacivirus hominis.
The test system of series [5] is Hepatitis C virus. As to the kind of experiment: Antiviral activity against HCV GT2a-genotype assessed as inhibition of viral replication. It counts as functional, organism-based, Hepacivirus hominis.
The subject of series [6] is Hepatitis C virus. As to the kind of experiment: Antiviral activity against HCV GT4a-genotype assessed as inhibition of viral replication. It counts as functional, organism-based, Hepacivirus hominis.
The test system of series [7] is Hepatitis C virus. As to the kind of experiment: Antiviral activity against HCV GT5a-genotype assessed as inhibition of viral replication. It is filed as functional, organism-based, Hepacivirus hominis.
Series [8] has as its system Hepatitis C virus. As to the kind of experiment: microbe, parasite or virus in culture. To be noted: GT1a-genotype.
In series [9] the test system is Hepatitis C virus. As to the kind of experiment: microbe, parasite or virus in culture. To be noted: GT1b-genotype.
Series [10] can be described thus: Inhibition of human rhinovirus 3C protease. Details: species or system Human rhinovirus sp.
The subject of series [11] is Human rhinovirus sp. In words: Inhibition of human rhinovirus 3C protease assessed as kobs/[I].
Series [12] is described as follows: Half life in human plasma. It counts as ADME, cell-free.
Series [13] is described as follows: Aqueous solubility of compound. It is filed as physicochemical.
A short description of series [14]: in vitro. To be noted: human, liver microsomes. For orientation: Liver microsomes are vesicles of endoplasmic reticulum, rich in cytochrome P450 enzymes.
The nature of series [15]: in vitro. To be noted: human, Caco-2. The source holds these as a separate data set.
Series [16] addresses Vasopressin V1a receptor (Homo sapiens, UniProt P37288).
Series [17] in a line: in vitro. As to conditions: human, liver microsomes. The source holds these as a separate data set.
Series [18] in a line: in vitro. As to conditions: rat, liver microsomes.
Series [19] is described as follows: in vitro. To be noted: mouse, liver microsomes.
In series [20] the test system is Influenza A virus. In words: Antiviral activity against Influenza A virus A/PR/8/34 (PR8) strain infected in MDCK cells assessed as reduction in viral infection incubated for 72 hrs by crystal violet staining based assay. It counts as functional, organism-based.
Series [21] deals with Polymerase acidic protein (Influenza A virus (A/Puerto Rico/8/1934(H1N1)), UniProt P03433).
A short description of series [22]: Solubility of compound at pH 6.8 by RapidFire mass spectrometry. It is filed as physicochemical. As to conditions: buffer.
Series [23] is described as follows: Solubility of the compound in FaSSIF at pH 6.8 by RapidFire mass spectrometry. It counts as ADME. As to conditions: simulated gi fluid.
Series [24] is described as follows: Lipophilicity, logD of the compound in 1-octanol and phosphate buffer by tandem mass spectrometer analysis. It is filed as physicochemical. To be noted: 1-octanol/phosphate buffer.
The nature of series [25]: Clearance in rat liver microsomes. It is filed as ADME, Microsome.
The target of series [26] is CYP3A4 (Homo sapiens, UniProt P08684). As to the kind of experiment: (§1) Inhibition of CYP3A4 (unknown origin). It is filed as ADME.
For series [27], the target named is hERG (KCNH2) (Homo sapiens, UniProt Q12809). In words: (§2) Inhibition of hERG channel. It is filed as toxicity. As to conditions: human.
Series [28] addresses T1, Beta-2 adrenergic receptor (Bos taurus, UniProt Q28044). In words: Binding affinity to bovine lung membrane adrenergic beta-2 receptor. It is filed as cell membranes.
Series [29] concerns the target T1, Beta-2 adrenergic receptor. As to the kind of experiment: Antagonist activity at bovine lung membrane adrenergic beta-2 receptor. It is filed as cell membranes.
The target of series [30] is T2, Beta-1 adrenergic receptor (Rattus norvegicus, UniProt P18090).
In series [31] the target is T2, Beta-1 adrenergic receptor. This is another data set of the same source.
The target of series [32] is Cytochrome P450 3A4 (Homo sapiens, UniProt P08684). Described as §1. It is filed as ADME.
Series [33] addresses Voltage-gated inwardly rectifying potassium channel KCNH2 (Homo sapiens, UniProt Q12809). The description is as §2. It counts as toxicity.
The conditions of series [34]: human, microsomes.

As a reminder, the logD is the decadic logarithm of the distribution of all forms, ionised or not, between an organic phase and buffer at a given pH. A word on the efflux ratio: it is the permeability from basolateral to apical divided by that in the opposite direction, in the common usage. By kinetic solubility is commonly meant the concentration staying in solution when a stock, usually in DMSO, is diluted into the medium. Broadly, the EC50 is the concentration needed to bring the measured effect to its halfway point. A word on the half-life: it is the time needed for the level to fall by half in the phase considered. Higher therefore signals slow loss. For orientation: solubility means how much of the substance goes into solution per volume. The low end stands for little dissolved substance, the high end for much dissolved substance. A word on the amount remaining: it is what is left of the initial amount, in per cent. A lower amount remaining goes with a greater loss. The Papp A→B is how fast a substance crosses the layer from the apical side. Low values mean slow passage, high ones fast passage. In general, Ki refers to a measure of affinity in units of concentration, obtained from inhibition or displacement. Read a high Ki as a looser hold on the target. By microsomal CLint is commonly meant the rate of metabolic loss divided by the concentration. Low values mean slow turnover, high ones rapid turnover. A word on the IC50: it is the concentration at which inhibition is half-maximal.

≈ marks a conversion by molar mass, not a printed value.

T2 sequence (P18090 whole entry): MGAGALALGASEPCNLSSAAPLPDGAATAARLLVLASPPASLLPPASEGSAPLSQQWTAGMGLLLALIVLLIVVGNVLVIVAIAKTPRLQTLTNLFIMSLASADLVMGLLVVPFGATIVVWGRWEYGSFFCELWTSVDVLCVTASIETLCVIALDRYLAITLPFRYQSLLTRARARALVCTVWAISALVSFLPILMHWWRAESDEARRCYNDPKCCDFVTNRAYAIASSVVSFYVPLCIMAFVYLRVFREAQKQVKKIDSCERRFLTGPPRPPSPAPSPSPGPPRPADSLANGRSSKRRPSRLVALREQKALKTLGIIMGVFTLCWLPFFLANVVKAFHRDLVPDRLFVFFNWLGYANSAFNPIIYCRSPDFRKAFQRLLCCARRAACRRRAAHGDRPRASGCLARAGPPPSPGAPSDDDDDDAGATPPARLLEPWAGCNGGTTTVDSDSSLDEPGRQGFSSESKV
Sequence of Cytochrome P450 3A4 (P08684 whole entry): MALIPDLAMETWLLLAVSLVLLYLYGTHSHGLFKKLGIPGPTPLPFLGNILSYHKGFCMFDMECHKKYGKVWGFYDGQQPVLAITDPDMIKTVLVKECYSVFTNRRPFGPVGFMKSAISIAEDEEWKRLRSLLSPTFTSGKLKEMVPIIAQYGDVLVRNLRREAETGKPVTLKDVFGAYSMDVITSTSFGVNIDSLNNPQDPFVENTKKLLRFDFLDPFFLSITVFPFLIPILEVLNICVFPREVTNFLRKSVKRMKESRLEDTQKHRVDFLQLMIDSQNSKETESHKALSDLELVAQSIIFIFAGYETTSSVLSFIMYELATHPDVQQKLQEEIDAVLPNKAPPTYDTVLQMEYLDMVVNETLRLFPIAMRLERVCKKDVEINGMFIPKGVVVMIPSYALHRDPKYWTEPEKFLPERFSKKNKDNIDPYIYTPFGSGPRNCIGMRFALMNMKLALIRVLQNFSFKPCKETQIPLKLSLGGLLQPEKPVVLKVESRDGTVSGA
T1 sequence (Q28044 whole entry): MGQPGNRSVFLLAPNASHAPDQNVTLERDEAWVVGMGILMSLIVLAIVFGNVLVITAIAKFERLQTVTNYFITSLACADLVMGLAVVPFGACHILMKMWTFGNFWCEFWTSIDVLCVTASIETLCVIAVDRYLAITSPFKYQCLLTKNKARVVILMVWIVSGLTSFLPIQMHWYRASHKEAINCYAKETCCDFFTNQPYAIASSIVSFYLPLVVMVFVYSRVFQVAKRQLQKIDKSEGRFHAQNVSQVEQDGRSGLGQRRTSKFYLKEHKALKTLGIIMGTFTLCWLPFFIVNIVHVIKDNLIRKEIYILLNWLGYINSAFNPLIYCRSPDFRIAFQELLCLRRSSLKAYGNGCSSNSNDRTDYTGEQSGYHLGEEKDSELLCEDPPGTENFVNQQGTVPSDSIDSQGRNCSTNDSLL
Sequence of hERG (KCNH2) (Q12809 whole entry): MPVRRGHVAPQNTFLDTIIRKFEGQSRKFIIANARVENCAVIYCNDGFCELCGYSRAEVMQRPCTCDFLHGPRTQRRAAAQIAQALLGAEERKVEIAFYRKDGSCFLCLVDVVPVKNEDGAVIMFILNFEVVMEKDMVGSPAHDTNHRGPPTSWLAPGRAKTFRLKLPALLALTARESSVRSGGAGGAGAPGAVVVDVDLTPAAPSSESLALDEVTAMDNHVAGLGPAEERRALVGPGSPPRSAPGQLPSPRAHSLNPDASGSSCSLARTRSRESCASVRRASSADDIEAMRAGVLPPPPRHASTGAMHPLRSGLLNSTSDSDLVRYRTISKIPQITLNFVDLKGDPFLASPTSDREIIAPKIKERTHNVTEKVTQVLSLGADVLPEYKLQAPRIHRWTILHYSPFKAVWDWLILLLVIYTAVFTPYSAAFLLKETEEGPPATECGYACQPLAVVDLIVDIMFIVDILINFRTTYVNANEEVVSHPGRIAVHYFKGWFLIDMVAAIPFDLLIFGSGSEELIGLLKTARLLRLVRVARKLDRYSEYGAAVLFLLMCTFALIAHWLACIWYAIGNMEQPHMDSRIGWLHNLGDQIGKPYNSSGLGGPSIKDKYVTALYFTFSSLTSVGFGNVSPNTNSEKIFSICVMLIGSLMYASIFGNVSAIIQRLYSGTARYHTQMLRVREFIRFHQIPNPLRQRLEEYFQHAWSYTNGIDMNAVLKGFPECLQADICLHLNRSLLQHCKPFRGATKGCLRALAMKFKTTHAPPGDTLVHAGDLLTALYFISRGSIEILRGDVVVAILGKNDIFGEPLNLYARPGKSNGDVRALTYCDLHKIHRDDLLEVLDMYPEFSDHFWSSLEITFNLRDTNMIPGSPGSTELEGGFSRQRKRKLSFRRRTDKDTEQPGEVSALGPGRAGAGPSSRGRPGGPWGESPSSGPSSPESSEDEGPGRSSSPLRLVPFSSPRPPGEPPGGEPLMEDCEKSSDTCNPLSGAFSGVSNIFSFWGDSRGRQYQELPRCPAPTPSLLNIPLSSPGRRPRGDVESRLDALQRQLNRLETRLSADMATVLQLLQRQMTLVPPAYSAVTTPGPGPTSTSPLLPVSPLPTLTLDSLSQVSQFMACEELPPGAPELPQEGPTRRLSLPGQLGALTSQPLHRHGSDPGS
Sequence of Vasopressin V1a receptor (P37288 whole entry): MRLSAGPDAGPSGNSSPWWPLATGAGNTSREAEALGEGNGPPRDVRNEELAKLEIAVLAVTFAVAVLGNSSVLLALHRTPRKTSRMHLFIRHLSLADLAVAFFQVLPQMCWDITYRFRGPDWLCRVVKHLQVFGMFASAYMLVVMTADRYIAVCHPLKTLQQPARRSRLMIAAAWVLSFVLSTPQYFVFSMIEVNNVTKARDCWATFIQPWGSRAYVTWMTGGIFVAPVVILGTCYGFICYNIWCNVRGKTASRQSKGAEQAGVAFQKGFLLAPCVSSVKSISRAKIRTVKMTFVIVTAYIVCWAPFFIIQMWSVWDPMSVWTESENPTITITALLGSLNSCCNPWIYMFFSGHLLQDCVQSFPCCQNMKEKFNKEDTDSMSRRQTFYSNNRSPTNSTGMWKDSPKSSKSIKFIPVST
Sequence of CYP3A4 (P08684 whole entry): as the sequence (P08684 whole entry) above
Sequence of Voltage-gated inwardly rectifying potassium channel KCNH2 (Q12809 whole entry): as the sequence (Q12809 whole entry) above

In the case of `O=C(CCCCCCC(=O)Nc1ccccc1)NO` [VORINOSTAT], the log distribution coefficient (logD) in series [1] came to 0.99.

As to `Clc1ccc2c(c1)CCCc1nnc(C3CCN(c4ccccn4)CC3)n1-2`, the efflux ratio in series [2] worked out at 1. For the same compound, in series [3], the solubility (kinetic) is 8.9 µM (≈ 3.38 µg/mL).

With `COC(=O)N[C@H](C(=O)N1CCC[C@H]1c1nc2cc(-c3csc4c(-c5ccc(-c6c[nH]c([C@@H]7CCCN7C(=O)[C@H](NC(=O)OC)c7ccccc7)n6)cc5)csc34)ccc2[nH]1)C(C)C`, the EC50 came to 0.1 nM in series [4]; 0.002 nM in series [5]; 0.002 nM in series [6]; 0.002 nM in series [7]; 0.002 nM in series [8]; 0.002 nM in series [9].

Compound `C#CC[C@@H](C(=O)N[C@H](/C=C/C(=O)OCC)C[C@@H]1CCNC1=O)n1cccc(NC(=O)c2cc(C)on2)c1=O` [IMOCITRELVIR] displayed an EC50 in series [10] of 58 nM. In series [11], the Ratio was 223000 M/s. The half-life in series [12] is 6.6 h. The solubility in series [13] was determined as 377 µg/mL (≈ 720 µM). Further, in series [14], the amount remaining at 0.5 h is 60%. In [15], this compound returned a Papp A→B of 6 ×10⁻⁶ cm/s.

`Clc1cnc2n1CCCc1nnc(C3CCN(c4ccccn4)CC3)n1-2`: the Ki in series [16] came out at 140 nM. In addition, the figures for the microsomal CLint in series [17], in series [18] and in series [19] were 4 µL/min/mg, 32 µL/min/mg and 33 µL/min/mg, respectively. This compound also had a kinetic solubility in [3] of 93.8 µM (≈ 34.7 µg/mL).

In the case of `CCN1CCC(Cc2ccc(Cl)cc2)(C(=O)/C=C(\O)C(=O)O)CC1`, in series [20], the IC50 was 1100 nM. Affinity in series [21] was put at a Ki of 90 nM.

Turning to `O=C(Cc1ccc(-c2ccccc2)cc1)Nc1cc(C2CC2)[nH]n1`, the solubility in series [22] was below 0.004 µM; in series [23], 0.006 µM (≈ 0.0019 µg/mL). In addition, the logD in series [24] stood at 4.4. The CLhep predicted in series [25] is 48 mL/min/kg. The figures for the IC50 in series [26] and in series [27] were above 20000 nM and above 30000 nM, respectively.

On to `CCO/N=C/C(O)CNC(C)(C)C` (stereo not drawn), for which the Ki in series [28] and in series [30] was 850 nM throughout. The IC50 was 269 nM in [29] and 8320 nM in series [31].

On to `O=C(NCCS(=O)(=O)c1ccc(C(F)(F)F)cn1)c1ccc(B2C=CC=CN2)cc1`, for which the solubility in series [22] is below 0.004 µM; in [23] it was 0.006 µM (≈ 0.00261 µg/mL). This compound showed a logD in [24] of 3.5. Also, the CLhep predicted in series [25] is 53 mL/min/kg. The figures for the IC50 in [32] and in series [33] were above 20000 nM and above 30000 nM, respectively.

In turn, `Clc1cnc2n1CCCc1nnc([C@H]3CC[C@H](Oc4ccccn4)CC3)n1-2` came in with a Ki in [16] of 14 nM. Further, the CLH in series [34] is 1 µL/min/mg. Also, the Papp A→B in [15] was 41 ×10⁻⁶ cm/s. In series [3], the solubility (kinetic) is 49.6 µM (≈ 19.1 µg/mL).

Turning to `O=C(Cc1ccc(B2C=CC=CN2)cc1)Nc1cc(C2CC2)[nH]n1`, the solubility is 0.013 µM (≈ 0.00414 µg/mL) in [22] and 0.03 µM (≈ 0.00955 µg/mL) in series [23]. In addition, in series [24], the logD stood at 3.9. The CLhep predicted in series [25] was 48 mL/min/kg. Also, the IC50 was above 20000 nM in series [32] and above 30000 nM in series [27].
